BigSolDB 2.1

O=C(/C=C/C=C/c1ccc2c(c1)OCO2)N1CCCCC1
solubility (mole fraction)
Details	278.15 K	283.15 K	288.15 K	293.15 K	298.15 K	303.15 K	308.15 K	313.15 K	318.15 K
in acetone	0.00485	0.00589	0.00706	0.0083	0.00973	0.0113	0.0129	0.0146	0.0166
in ethanol	0.00413	0.00503	0.00607	0.00714	0.00827	0.00966	0.0111	0.0126	0.0143
in ethyl acetate	0.00807	0.0104	0.0132	0.0161	0.0194	0.0232	0.0274	0.0321	0.0373
